Experimental data as given in patent US20130252930A1 (BIOMARIN PHARMACEUTICAL INC., priority 2010, published 2013).
pIC50: −log10 of the molar value. Like-named read-outs stand apart in the source and are kept apart here.

Legend:
[1] = target: T1, Cyp21 enzyme (Human HEK 293-Cyp21 stable transfected cells) (Homo sapiens, UniProt P08686); test: CYP21-HEK293 enzymatic assay (IC50) (Biological Example 11); assay type: cell-based; details: HEK 293-Cyp21 cells
T1 construct: expressed in transfected cells
T1 sequence (P08686 1-495): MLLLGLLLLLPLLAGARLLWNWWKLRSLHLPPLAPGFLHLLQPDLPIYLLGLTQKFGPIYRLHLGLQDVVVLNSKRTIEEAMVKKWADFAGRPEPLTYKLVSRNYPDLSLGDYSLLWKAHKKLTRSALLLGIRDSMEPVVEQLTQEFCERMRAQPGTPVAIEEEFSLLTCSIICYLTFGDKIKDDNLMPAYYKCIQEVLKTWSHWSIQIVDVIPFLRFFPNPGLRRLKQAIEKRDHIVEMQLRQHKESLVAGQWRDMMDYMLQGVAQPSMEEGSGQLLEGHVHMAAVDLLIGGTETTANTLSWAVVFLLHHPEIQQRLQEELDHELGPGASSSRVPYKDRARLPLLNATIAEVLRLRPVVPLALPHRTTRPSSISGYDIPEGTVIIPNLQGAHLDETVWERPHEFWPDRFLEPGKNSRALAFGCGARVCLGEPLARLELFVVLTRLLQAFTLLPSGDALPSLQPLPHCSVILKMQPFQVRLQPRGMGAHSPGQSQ

[2] = target: T2, CYP17 (human testicular microsome) (Homo sapiens, UniProt P05093); test: CYP17 enzymatic assay (% inhibition at 1 nM) (Biological Example 12); assay type: biochemical; details: compound at 1 nM
T2 construct: using microsomal fraction from human testis (Celsis Cat #S00110) as the enzyme source; tissue Celsis S00110; host or cells: human testis microsomal fraction
T2 sequence (P05093 1-508): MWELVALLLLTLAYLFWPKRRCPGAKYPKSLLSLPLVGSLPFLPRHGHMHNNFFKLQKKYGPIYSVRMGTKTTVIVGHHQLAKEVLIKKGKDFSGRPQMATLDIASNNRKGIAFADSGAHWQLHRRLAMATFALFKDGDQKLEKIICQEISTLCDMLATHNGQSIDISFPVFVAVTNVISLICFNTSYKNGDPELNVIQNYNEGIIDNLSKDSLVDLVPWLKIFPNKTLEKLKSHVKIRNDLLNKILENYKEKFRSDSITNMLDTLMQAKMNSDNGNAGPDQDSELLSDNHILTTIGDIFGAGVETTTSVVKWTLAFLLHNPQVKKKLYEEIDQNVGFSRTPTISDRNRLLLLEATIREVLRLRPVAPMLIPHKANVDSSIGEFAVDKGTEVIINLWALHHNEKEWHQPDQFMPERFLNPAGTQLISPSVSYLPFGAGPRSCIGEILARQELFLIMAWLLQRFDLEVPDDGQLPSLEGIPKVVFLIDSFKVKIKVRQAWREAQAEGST
Method: The assays were performed in 96-well plates. Typical assays were carried out in total 100 μL volume that included test compounds at 1 nM concentration, 1× reaction buffer, 0.5 mM NADPH, 1 μM 17α-hydroxypregnenolone, and 2.5 μL of human testicular microsome (Celsis. Cat #S00110). Reaction without test compound served as a positive control. Reactions were allowed to incubate at 37° C. for 90 min with gentle shaking. The reaction was stopped by directly applying the enzymatic reaction mixture to ELISA plate for evaluation of DHEA concentration according to manufacturer's protocol (IBL America). A standard curve (OD450 vs. DHEA concentration) was generated using purified DHEA. […] Percent inhibition (inhibition %) of the compound was calculated using normalized DHEA concentration based on following formula: 100−([DHEA] of compound/[DHEA] of positive control*100).

[3] = read-out: CYP21-HEK293 enzymatic assay IC50 (Biological Example No. 11)
[4] = read-out: CYP17 enzymatic assay % inhibition at 1 nM (Biological Example No. 12)
[5] = read-out: Biological Example No. 11: CYP21-HEK293 enzymatic assay IC50
[6] = read-out: Biological Example No. 12: CYP17 enzymatic assay % inhibition at 1 nM

| Structure (SMILES) | pIC50 [1, 3] | inhibition at 0.001 µM [2, 4] | pIC50 [1, 5] | inhibition at 0.001 µM [2, 6] |
| --- | --- | --- | --- | --- |
| C[C@]12CC[C@@H](NS(=O)(=O)C3CC3)CC1=CC[C@@H]1[C@@H]2CC[C@]2(C)C(c3cccnc3)=CC[C@@H]12 [Compound 228, N-((3R,10R,13S)-10,13-dimethyl-17-(pyridin-3-yl)-2,3,4,7,8,9,10,11,12,13,14,15-dodecahydro-1H-cyclopenta[a]phenanthren-3-yl)cyclopropanesulfonamide] | < 6.00 | 10 to 50% |  |  |
| CC1=C2CCC3C4=CC=C(c5cccnc5)[C@@]4(C)CCC3[C@@]2(C)CCC1=O (stereo partly drawn) [Compound 296, (10R,13S)-4,10,13-trimethyl-17-(pyridin-3-yl)-6,7,8,9,10,11,12,13-octahydro-1H-cyclopenta[a]phenanthren-3(2H)-one] | < 7.00 | > 50% |  |  |
| CC1C(=O)CC[C@@]2(C)C1CC[C@@H]1[C@@H]2CC[C@]2(C)C(c3cccnc3)=CC[C@@H]12 (stereo partly drawn) [Compound 303, (10R,13S)-4,10,13-trimethyl-17-(pyridin-3-yl)-4,5,6,7,8,9,10,11,12,13,14,15-dodecahydro-1H-cyclopenta[a]phenanthren-3(2H)-one] |  |  | < 6.00 | 10 to 50% |
| CC1CC2C3=CC=C(c4ccc(F)nc4)[C@@]3(C)CCC2[C@@]2(C)CCC(=O)C=C12 (stereo partly drawn) [Compound 326, (10R,13S)-17-(6-fluoropyridin-3-yl)-6,10,13-trimethyl-6,7,8,9,10,11,12,13-octahydro-1H-cyclopenta[a]phenanthren-3(2H)-one] |  |  | < 6.00 | 10 to 50% |
| CC1CC2C3=CC=C(c4cncc(C(F)F)c4)[C@@]3(C)CCC2[C@@]2(C)CCC(=O)C=C12 (stereo partly drawn) [Compound 328, (10R,13S)-17-(5-(difluoromethyl)pyridin-3-yl)-6,10,13-trimethyl-6,7,8,9,10,11,12,13-octahydro-1H-cyclopenta[a]phenanthren-3(2H)-one] |  |  | < 6.00 | < 10% |
| C[C@]12CCC(=O)C=C1C(C1CC1)C[C@@H]1[C@@H]2CC[C@]2(C)C(c3cncc(F)c3)=CC[C@@H]12 (stereo partly drawn) [Compound 331, (10R,13S)-6-cyclopropyl-17-(5-fluoropyridin-3-yl)-10,13-dimethyl-6,7,8,9,10,11,12,13,14,15-decahydro-1H-cyclopenta[a]phenanthren-3(2H)-one] |  |  | < 6.00 | 10 to 50% |
| CCC1CC2C(CC[C@]3(C)C(c4cccnc4)=CCC23)[C@@]2(C)CCC(=O)C=C12 (stereo partly drawn) [Compound 332, (10R,13S)-6-ethyl-10,13-dimethyl-17-(pyridin-3-yl)-6,7,8,9,10,11,12,13,14,15-decahydro-1H-cyclopenta[a]phenanthren-3(2H)-one] |  |  | 7.00 to 8.00 | 10 to 50% |
| CCC1CC2C(CC[C@]3(C)C(c4cncc(F)c4)=CCC23)[C@@]2(C)CCC(=O)C=C12 (stereo partly drawn) [Compound 333, (10R,13S)-6-ethyl-17-(5-fluoropyridin-3-yl)-10,13-dimethyl-6,7,8,9,10,11,12,13,14,15-decahydro-1H-cyclopenta[a]phenanthren-3(2H)-one] |  |  | < 6.00 | < 10% |
| CCC1CC2C(CC[C@]3(C)C(c4cncc(C(F)F)c4)=CCC23)[C@@]2(C)CCC(=O)C=C12 (stereo partly drawn) [Compound 334, (10R,13S)-17-(5-(difluoromethyl)pyridin-3-yl)-6-ethyl-10,13-dimethyl-6,7,8,9,10,11,12,13,14,15-decahydro-1H-cyclopenta[a]phenanthren-3(2H)-one] |  |  | < 6.00 | < 10% |
| C[C@]12CCC(=O)C=C1C(n1ccnn1)CC1C2CC[C@]2(C)C(c3cccnc3)=CCC12 (stereo partly drawn) [Compound 335, (10R,13S)-10,13-dimethyl-17-(pyridin-3-yl)-6-(1H-1,2,3-triazol-1-yl)-6,7,8,9,10,11,12,13,14,15-decahydro-1H-cyclopenta[a]phenanthren-3(2H)-one] |  |  | < 6.00 | 10 to 50% |
| C[C@]12CCC(=O)C=C1C(n1nccn1)CC1C2CC[C@]2(C)C(c3cccnc3)=CCC12 (stereo partly drawn) [Compound 336, (10R,13S)-10,13-dimethyl-17-(pyridin-3-yl)-6-(2H-1,2,3-triazol-2-yl)-6,7,8,9,10,11,12,13,14,15-decahydro-1H-cyclopenta[a]phenanthren-3(2H)-one] |  |  | < 6.00 | < 10% |
| C[C@]12CCC(=O)C=C1C(c1ccccc1)CC1C2CC[C@]2(C)C(c3cncc(F)c3)=CCC12 (stereo partly drawn) [Compound 337, (10R,13S)-17-(5-fluoropyridin-3-yl)-10,13-dimethyl-6-phenyl-6,7,8,9,10,11,12,13,14,15-decahydro-1H-cyclopenta[a]phenanthren-3(2H)-one] |  |  | < 6.00 | < 10% |
| C[C@]12CCC(=O)C=C1C(c1ccccc1)CC1C2CC[C@]2(C)C(c3cccnc3)=CCC12 (stereo partly drawn) [Compound 338, (10R,13S)-10,13-dimethyl-6-phenyl-17-(pyridin-3-yl)-6,7,8,9,10,11,12,13,14,15-decahydro-1H-cyclopenta[a]phenanthren-3(2H)-one] |  |  | < 6.00 | < 10% |
| C[C@]12CCC(=O)C=C1C(C1CC1)C[C@@H]1[C@@H]2CC[C@]2(C)C(c3cccnc3)=CC[C@@H]12 (stereo partly drawn) [Compound 339, (10R,13S)-6-cyclopropyl-10,13-dimethyl-17-(pyridin-3-yl)-6,7,8,9,10,11,12,13,14,15-decahydro-1H-cyclopenta[a]phenanthren-3(2H)-one] |  |  | < 6.00 | < 10% |
| CC1CC2C(CC[C@]3(C)C(c4cncc(C(F)F)c4)=CCC23)[C@@]2(C)CCC(=O)C=C12 (stereo partly drawn) [Compound 341, (10R,13S)-17-(5-(difluoromethyl)pyridin-3-yl)-6,10,13-trimethyl-6,7,8,9,10,11,12,13,14,15-decahydro-1H-cyclopenta[a]phenanthren-3(2H)-one] |  |  | < 6.00 | 10 to 50% |
| C[C@]12CC[C@H]3[C@@H](CC(C4CC4)C4=CC(=O)CC[C@@]43C)C1=CC=C2c1cccnc1 (stereo partly drawn) [Compound 343, (10R,13S)-6-cyclopropyl-10,13-dimethyl-17-(pyridin-3-yl)-6,7,8,9,10,11,12,13-octahydro-1H-cyclopenta[a]phenanthren-3(2H)-one] |  |  | < 7.00 | 10 to 50% |
| C[C@]12CC[C@H]3[C@@H](CC(c4ccccc4)C4=CC(=O)CC[C@@]43C)C1=CC=C2c1cccnc1 (stereo partly drawn) [Compound 344, (10R,13S)-10,13-dimethyl-6-phenyl-17-(pyridin-3-yl)-6,7,8,9,10,11,12,13-octahydro-1H-cyclopenta[a]phenanthren-3(2H)-one] |  |  | < 6.00 | 10 to 50% |
| CC1C[C@@H]2[C@H](CC[C@]3(C)C(c4cncc(C(F)F)c4)=CC[C@@H]23)[C@@]2(C)C=CC(=O)C=C12 (stereo partly drawn) [Compound 346, (10R,13S)-17-(5-(difluoromethyl)pyridin-3-yl)-6,10,13-trimethyl-6,7,8,9,10,11,12,13,14,15-decahydro-3H-cyclopenta[a]phenanthren-3-one] |  |  | < 6.00 | 10 to 50% |
| C[C@]12CCC3C(CCC4=CC(=O)CC[C@@]43C)C1=CC=C2c1ccc(F)nc1 (stereo partly drawn) [Compound 355, (10R,13S)-17-(6-fluoropyridin-3-yl)-10,13-dimethyl-6,7,8,9,10,11,12,13-octahydro-1H-cyclopenta[a]phenanthren-3(2H)-one] |  |  | < 6.00 | 10 to 50% |
| Cc1cnc(F)c(C2=CCC3C4CCC5=CC(=O)CC[C@]5(C)C4CC[C@]23C)c1 (stereo partly drawn) [Compound 356, (10R,13S)-17-(2-fluoro-5-methylpyridin-3-yl)-10,13-dimethyl-6,7,8,9,10,11,12,13,14,15-decahydro-1H-cyclopenta[a]phenanthren-3(2H)-one] |  |  | < 6.00 | 10 to 50% |
| C[C@]12CCC3C(CCC4=CC(=O)CC[C@@]43C)C1=CC=C2c1cncc(Cl)c1 (stereo partly drawn) [Compound 359, (10R,13S)-17-(5-chloropyridin-3-yl)-10,13-dimethyl-6,7,8,9,10,11,12,13-octahydro-1H-cyclopenta[a]phenanthren-3(2H)-one] |  |  | < 6.00 | 10 to 50% |
